Assay results reported in patent US20080279961A1, “TELOMERE TARGETING AGENTS AS STEM CELLS DIRECTED TREATMENTS” (priority 2007, published 2008).
“Also recorded” adds a separate entry of the source.

What was measured:
hTERT [1] = assay: hTERT immunofluorescence staining in vitro; format: cell-based, human; conditions: UXF1138L cells, 1 microM, 24 hrs
Description: During phosphorylated H2AX (gamma-H2AX) and hTERT immunofluorescence staining, approximately 75,000 UXF1138L cells/chamber were seeded onto 8 chamber glass slides (Costar) 24 hrs prior to RHPS4 treatment. After exposure to 1 μM RHPS4 for 1, 6, or 24 hours, cells were washed twice with PBS and air dried. Cells were fixed and permeabilized by immersion into ice-cold methanol/acetone (1:1; 3×1 min). Slides were blocked overnight at 4° C. with 5% BSA in PBS and washed with PBS (3×) before incubation (2 hrs) with anti-gamma-H2AX mouse monoclonal antibody (Upstate, Waltham, Mass.; 1:250 in PBS) or hTERT monoclonal antibody (NCL-L-hTERT Novacastra, Newcastle, UK; 1:40) respectively. Control cells were probed with mouse IgG (Santa Cruz Biotechnolog Inc., Santa Cruz, Calif.). Slides were washed 3× with PBS, before incubation with a goat anti-mouse FITC conjugated secondary antibody (Sigma; 1:100, 3 h). Following further PBS washes (3×), slides were incubated with 1:5000 DAPI (2 mg/ml; Sigma), washed 3× in PBS and mounted with Vectashield mounting media. Images were visualized as described above.

[2] = tolerability in xenograft studies (body weight, deaths, MTD)
Description: For the first in vivo experiment, tumor fragments (5×5 mm) from untreated donor animals were implanted subcutaneously into both flanks of recipient mice. Treatment was initiated 6 days after transplantation (=day 0, median tumor volume of ˜70 mm^3). Animals were randomized into groups following Lindner's randomization tables and treated by oral gavage with 5 mg/kg/d RHPS4 or vehicle (phosphate buffered saline) respectively (n=5-8 animals per group). […] Drug administration was repeated twice weekly for 8 times (Q3dx8) after randomization. Tumor growth was followed twice weekly by serial caliper measurement, body weights were recorded, and tumor volumes were calculated using the standard formula (length×width^2)/2, where length is the largest dimension and width the smallest dimension perpendicular to the length (Alley et al., 2004; Geran et al., 1972). The median relative tumor volume was plotted against time. Relative tumor volumes were calculated for each single tumor by dividing the tumor volume on day X by that on day 0 (time of randomization). Growth curves were analyzed in terms of tumor inhibition (treated/control, T/C, calculated as median tumor weight of treated divided by median tumor weight of control animals times 100). Statistical data analysis was done using non-parametrical Wilcoxon Mann-Whitney statistics. Median relative tumor volumes of each treatment group were compared with those of the vehicle control groups. P values less than 0.05 were considered statistically significant. SPSS 2000, SYSTAT version 10 software was used.
To conduct combination treatment with Paclitaxel, after 4 serial propagations of RHPS4 treated tumor tissue in nude mice (FIG. 1), RHPS4 was combined with Paclitaxel. Single agent Paclitaxel was given at 20 mg/kg i.v. on days 1 and 15. In combination with RHPS4 (given at 5 mg/kg p.o. twice weekly), only a single dose of Paclitaxel (20 mg/kg i.v.) was administered on day 1. Tumor growth parameters and body weight were assessed as described above.

[3] = test system: normal monkey bone marrow stem cells; assay: methylcellulose colony growth of bone marrow stem cells; format: cell-based; conditions: low drug concentrations
Description: For the monkey bone marrow and the human cord blood, methylcellulose from StemCell Technologies (Vancouver) was used to grow the stem cells as colonies. […] Cancer tissues are composed of various cell types, tumor cells, stromal fibroblasts, blood vessels, inflammatory cells, and adipocytes, all of which can carry over into single cell suspensions that are seeded into soft agar after tissue digestion. To examine whether tumor stem cells secrete cytokines that support their growth of enforce differentiation, the expression of 6 cytokines found in the supernatant of clonogenic assays was evaluated. Ultrasensitive immunoassay procedures based on the ELISA (enzyme linked immuno absorbent assay) technology were employed for the measurement of VEGF, TNF-alpha, GMCSF, GCSF IL4 and IL6. The assays were performed by the Cytokine Laboratory in the VA Hospital at the University of Maryland Baltimore and data provided as optical density readouts that were converted relative to a standard into pg/ml absolute cytokine values. The IL4 and 6 measurements were all negative; however VEGF, TNF-alpha, GMCSF and GCSF yielded interesting and differential results between tumor and normal stem cells. While cytokine levels decreased after RHPS4 treatment in tumor stem cell assays, they increased in normal stem cell cultures.

PC3 cells = assay: MTT proliferation assay (bulk cells); format: cell-based, human; conditions: PC3, 5 day; read-out: IC50 growth inhibition of the bulk population by MTT assay
Description: (§1) The growth inhibitory activity of RHPS4 in human bulk tumor cells have been compared, by MTT assay, against RHPS4 activity in tumor cells grown as colonies in the clonogenic assay, also termed the human tumor stem cell assay (HTCA) (FIG. 2A-B). HEK293T human embryonic kidney cells grown in the HTCA, and cord blood cells cultured in methylcellulose were also treated with RHPS4 (FIG. 2C). The MTT assay is a 5 day proliferation test measuring effects on a morphologically heterogeneous, differentiated cell population (bulk cells), whereas the HTCA and methylcellulose assays are longer term (10-15 day) tests in which only a very small fraction of a bulk culture (˜0.1-1%) will grow as colonies. Cells growing anchorage-independently as colonies in a semi-solid matrix are considered to be pluripotent stem cells (Hamburger & Salmon, 1977; Locke et al., 2005; Fiebig et al. 2004). […] Similar observations were made with the breast cancer cell line MCF-7 (shown in FIG. 2B, HTCA IC50=0.04 microM; bulk cell IC50=2 microM).

UXF1138L cells = assay: MTT proliferation assay (bulk cells); format: cell-based, human; conditions: 5 day, read-out: IC50 growth inhibition of the bulk population by MTT assay
Description: as §1

hTERT [4] = assay: hTERT immunohistochemistry of xenograft tissue; format: in vivo, human; conditions: RHPS4 treated UXF1138L xenograft
Description: Five-micrometer paraffin sections were cut, dewaxed, and antigen retrieval done in citrate buffer (pH 6.0) in the microwave for 30 minutes. Sections were then treated with methanol/3% hydrogen peroxide to remove endogenous peroxidase and blocked with 10% normal goat serum in PBS and stained. PBS was used as washing buffer. Cells were incubated overnight at 4° C. with a monoclonal anti-hTERT antibody (class IgG2a, kappa, Novacastra, Newcastle, UK) diluted 1:40 in PBS. Mouse immunoglobulin G2a isotype control (Santa Cruz) was used as negative control. hTERT-specific immunoperoxidase staining was developed using the DAKO Envision+ system (Envision 3,3V-diaminobenzidine Plus kit mouse, DAKO Cytomation). To enhance contrast, tissues were counterstained with hematoxylin. hTERT-specific staining intensity was documented using a Leica DM4000 microscope and digital camera. Sections were viewed and evaluated by two independent pathologists. Mean numbers of atypical mitoses were counted in control and treated tissues from 3 tumors (4 fields of 250 cells per tumor) for the 3 groups (Burger et al. 2005). Box plots were generated using SigmaPlot version 10 software and statistical significance between treatments calculated in SigmaPlot using the Student T-test.

COS(=O)(=O)[O-].Cc1cc2c3c([n+](C)c4ccc(F)cc4c3c1)-c1cc(F)ccc1N2C [RHPS4, 3,11-difluoro-6,8,13-trimethyl-8H-quino[4,3,2-kl]acridinium methosulfate]
nuclear hTERT expression in vitro (hTERT [1]): nuclear hTERT expression was attenuated; also recorded: nuclear hTERT signal is attenuated
Deaths [n/n], drug related death per mice per group ([2]; Passage #1): 0/5
Deaths [n/n], drug related death per mice per group ([2]; Passage #2): 0/6
Deaths [n/n], drug related death per mice per group ([2]; Passage #3): 0/8
Deaths [n/n], drug related death per mice per group ([2]; Passage #4): 0/5
tolerability ([2]; mouse, in vivo): well tolerated
1/2 maximal tolerated dose ([2]; oral, mouse strain used): 5 mg/kg/day
growth of normal monkey bone marrow stem cells [3]: induces the growth
IC50 (PC3 cells): 1800 nM
IC50 (UXF1138L cells): 400 nM
nuclear hTERT expression in xenograft tissue (hTERT [4]): loss of strong nuclear hTERT expression
